Source: patent publication US6900194B1, “Use of substituted 4-biarylbutyric and 5-biarylpentanoic acid derivatives as matrix metalloprotease inhibitors for the treatment of respiratory diseases” (Bayer Aktiengesellschaft, priority 1998, dated 2005)

How the values were obtained:
[1] = molecular target: T1, MMP-8 (Neutrophil Collagenase) (Homo sapiens, UniProt P22894); assay: P218 quenched fluorescence assay, MMP-8; type: biochemical
T1 construct: Active recombinant truncated form (met^80-gly^242) was obtained according to the protocol of Knauper; made in house
T1 sequence (P22894 100-262): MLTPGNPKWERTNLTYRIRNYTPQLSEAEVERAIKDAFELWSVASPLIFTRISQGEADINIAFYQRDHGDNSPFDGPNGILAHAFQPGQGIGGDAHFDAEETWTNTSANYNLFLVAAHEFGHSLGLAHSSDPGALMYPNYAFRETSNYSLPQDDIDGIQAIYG
Source text: (§1) P218 Quenched Fluorescence Assay for MMP Inhibition:
(§2) This assay is adapted from the one described by Knight et al., FEBS Letters, 296, 263-266 (1992) for MMP-3 and a related substrate. The rate of hydrolysis of the synthetic substrate H-MCA-Pro-Lys-Pro-Leu-Ala-Leu-DPA-Ala-Arg-NH2 (P218) by the respective MMPs is monitored fluorometrically, using an excitation wavelength of 340 nm and an emission wavelength of 395 nm, in the presence or absence of the test compounds. The substrate is made up initially in 100% DMSO to a concentration of 1×10^−2 M, then diluted in assay buffer to a final concentration of 20 μM. […] The total assay volume in a 96 well microtitre plate is 150 μl, Cleavage of the substrate between the Leu-Ala residues allows the fluorescence of the MCA group to be detected on a fluorometer (Cytofluor II) following excitation at 340 nm and emission at 395 nm. Change in fluorescence is continually monitored for a 40 min period.
(§3) The Ki's are calculated using the method described by Williams and Morrison, Methods in Enzymology, 63, 437-467 (1979) to measure Ki apparent for tight binding inhibitors, and is summarised as follows: [I]0/(1−vi/v0)=Ki apparent ×vi/v0+[E]0 [I]0 and [E]0 are inhibitor and enzyme concentrations, and vi/v0 are reaction velocities with/without inhibitor. […]
(§4) IC50's are determined at each enzyme concentration using Xlfit software. […]

MMP-2 (Gelatinase A) = MMP-2 (Gelatinase A) (Homo sapiens, UniProt P08253); assay: biochemical
Chain of MMP-2 (Gelatinase A) (P08253 110-660): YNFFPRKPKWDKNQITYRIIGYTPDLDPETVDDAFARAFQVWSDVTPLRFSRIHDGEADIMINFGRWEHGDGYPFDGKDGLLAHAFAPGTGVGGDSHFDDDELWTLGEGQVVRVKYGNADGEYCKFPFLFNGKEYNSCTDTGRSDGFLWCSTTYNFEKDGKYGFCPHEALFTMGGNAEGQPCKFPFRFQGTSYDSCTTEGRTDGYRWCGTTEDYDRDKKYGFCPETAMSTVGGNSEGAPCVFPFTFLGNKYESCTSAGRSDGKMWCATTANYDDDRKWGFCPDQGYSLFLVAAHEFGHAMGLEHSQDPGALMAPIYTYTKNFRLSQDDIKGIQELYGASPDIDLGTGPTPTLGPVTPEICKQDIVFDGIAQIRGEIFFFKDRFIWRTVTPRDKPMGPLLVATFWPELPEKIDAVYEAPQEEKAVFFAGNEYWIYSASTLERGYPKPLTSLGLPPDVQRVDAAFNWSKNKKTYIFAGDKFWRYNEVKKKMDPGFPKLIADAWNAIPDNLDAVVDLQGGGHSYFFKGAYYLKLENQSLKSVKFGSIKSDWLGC

MMP-3 (Stromelysin) = molecular target: T2, MMP-3 (Stromelysin) (Homo sapiens, UniProt P08254); assay: P218 quenched fluorescence assay, MMP-3; type: biochemical
T2 construct: Truncated Pro-stromelysin-257 is expressed in a soluble form in E. coli as described by Marcy et al; made in house; host or cells: E. coli
T2 sequence (P08254 100-274): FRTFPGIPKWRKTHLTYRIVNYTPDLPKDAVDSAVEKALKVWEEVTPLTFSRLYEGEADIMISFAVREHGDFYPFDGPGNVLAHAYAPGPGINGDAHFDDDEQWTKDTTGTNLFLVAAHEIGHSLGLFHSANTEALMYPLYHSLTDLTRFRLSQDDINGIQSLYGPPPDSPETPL
Source text: as §1, §2, §3, §4

| Compound | IC50 ([1]; read-out: IC50 vs. MMP-8 (value marked *)) [nM] | IC50 (MMP-2 (Gelatinase A)) [nM] | IC50 (MMP-3 (Stromelysin); read-out: IC50 vs. MMP-3 (value marked *)) [nM] | Ki ([1]; read-out: Potency Ki vs. MMP-8) [nM] | Ki (MMP-2 (Gelatinase A)) [nM] | Ki (MMP-3 (Stromelysin); read-out: Potency Ki vs. MMP-3) [nM] |
| --- | --- | --- | --- | --- | --- | --- |
| CCOc1ccc(-c2ccc(C(=O)CC(CCN3C(=O)c4ccccc4C3=O)C(=O)O)cc2)cc1 (single isomer, unassigned; (+)) [Example 2, (+)-2-[2-(1,3-Dioxo-1,3-dihydro-2H-isoindol-2-yl)ethyl]-4-(4′-ethoxy[1,1′-biphenyl]-4-yl)-4-oxobutanoic acid] | 21.6 | 3.2 | 60 |  |  |  |
| O=C(CC(CCN1C(=O)c2ccccc2C1=O)C(=O)O)c1ccc(-c2ccc(Cl)cc2)cc1 (single isomer, unassigned; (+)) [Example 4, (+)-4-(4′-Chloro[1,1′-biphenyl]4-yl)-2-[2-(1,3-dioxo-1,3-dihydro-2H-isoindol-2-yl)ethyl]-4-oxobutanoic acid] |  |  |  | 7.5 | 0.5 | 3.7 |
